In publication PMC7283271, “ADP binding by the Culex quinquefasciatus mosquito D7 salivary protein enhances blood feeding on mammals” (Nature Communications, 2020):

Key:
Assay type in all cases: binding
[1] = molecular target: T1, CxD7L2 (Culex quinquefasciatus, UniProt B0X6Z1); assay: ITC
T1 construct: gene D7L2; full-length mature protein, C-terminal 6x-His, HEK293

[2] = molecular target: CxD7L1 (Culex quinquefasciatus, UniProt A0A1S4K3K8); assay: ITC; set-up: gene D7L1; mature protein, C-terminal 6x-His, HEK293
[3] = molecular target: T1, CxD7L2; assay: ITC (also with protein saturated with serotonin)

T1 sequence (B0X6Z1 21-313 limits assumed): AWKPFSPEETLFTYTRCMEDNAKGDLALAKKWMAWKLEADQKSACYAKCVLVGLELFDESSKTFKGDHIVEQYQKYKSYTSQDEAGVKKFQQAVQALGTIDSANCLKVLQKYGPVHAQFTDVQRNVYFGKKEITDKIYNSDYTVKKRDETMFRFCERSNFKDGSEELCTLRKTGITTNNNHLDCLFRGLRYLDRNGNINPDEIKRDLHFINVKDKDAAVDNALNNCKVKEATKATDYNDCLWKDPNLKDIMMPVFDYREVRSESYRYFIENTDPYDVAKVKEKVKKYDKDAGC
Chain of CxD7L1 (A0A1S4K3K8 17-311 limits assumed): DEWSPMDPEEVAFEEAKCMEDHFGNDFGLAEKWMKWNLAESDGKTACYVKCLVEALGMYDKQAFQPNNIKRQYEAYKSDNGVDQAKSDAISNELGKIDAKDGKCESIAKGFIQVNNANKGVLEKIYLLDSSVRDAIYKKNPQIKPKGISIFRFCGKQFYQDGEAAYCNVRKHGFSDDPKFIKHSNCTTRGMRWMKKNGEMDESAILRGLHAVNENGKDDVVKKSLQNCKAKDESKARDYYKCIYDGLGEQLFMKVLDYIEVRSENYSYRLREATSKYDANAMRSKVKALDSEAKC

Row | SMILES | Kd [1] | further results
1 | CCCCC/C=C\C\C=C/C=C/C=C/[C@@H](SC[C@H](N)C(=O)O)[C@@H](O)CCCC(=O)O [LTE4] | 159 nM | 
2 | NCCc1c[nH]c2ccc(O)cc12 [Serotonin] | 7.46 nM | 
3 | Nc1ncnc2c1ncn2[C@@H]1O[C@H](COP(=O)(O)OP(=O)(O)OP(=O)(O)O)[C@@H](O)[C@H]1O [ATP] |  | Kd [2]: 30.8 nM
4 | Nc1ncnc2c1ncn2[C@@H]1O[C@H](COP(=O)(O)O)[C@@H](O)[C@H]1O [AMP] |  | Kd [2]: 77.5 nM
5 | CCCCC/C=C\C\C=C/C=C/C=C/[C@@H](SC[C@H](NC(=O)CC[C@H](N)C(=O)O)C(=O)NCC(=O)O)[C@@H](O)CCCC(=O)O [LTC4] | 152 nM | 
6 | NCCc1c[nH]cn1 [Histamine] | 383 nM | 
7 | CCCCC/C=C\C\C=C/C=C/C=C/[C@@H](SC[C@H](N)C(=O)NCC(=O)O)[C@@H](O)CCCC(=O)O [LTD4] |  | Kd [3]: 156 nM
